The source made the active and inactive calls.
Tests used:
[1] = molecular target: T1, Lysosomal acid glucosylceramidase (Homo sapiens, UniProt P04062); test: Dose response cell-based high throughput screening assay to identify enhancers of beta-glucosidase activity. [Related pubchem assays: 784 ]; type: functional
T1 sequence (P04062 whole entry): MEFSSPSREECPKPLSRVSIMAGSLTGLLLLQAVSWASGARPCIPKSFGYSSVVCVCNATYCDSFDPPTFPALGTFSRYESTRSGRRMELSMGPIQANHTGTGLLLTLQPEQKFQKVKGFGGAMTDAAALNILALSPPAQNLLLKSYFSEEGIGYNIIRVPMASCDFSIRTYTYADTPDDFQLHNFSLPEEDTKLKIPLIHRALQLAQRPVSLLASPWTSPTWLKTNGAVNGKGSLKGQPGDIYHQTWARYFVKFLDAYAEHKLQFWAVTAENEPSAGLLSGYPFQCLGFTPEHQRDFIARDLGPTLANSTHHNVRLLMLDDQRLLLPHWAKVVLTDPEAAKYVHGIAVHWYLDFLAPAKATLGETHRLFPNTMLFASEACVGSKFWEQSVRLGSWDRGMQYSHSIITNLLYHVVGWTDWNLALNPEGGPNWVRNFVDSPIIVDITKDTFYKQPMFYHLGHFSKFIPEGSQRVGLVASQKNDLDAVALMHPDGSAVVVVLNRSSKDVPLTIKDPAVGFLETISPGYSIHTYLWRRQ

[2] = growth suppression of PTEN-null colon cells, dose response, cell-based, HCT116 PTEN knockout (AID 1047); type: functional;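 further: HCT116 colon tumor cells with PTEN knocked out; cells exposed to compound for 60 hours before readout; potency for loss of cell viability measured by luminescence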
[3] = cytotoxicity in KRAS-transformed pancreatic duct cells, primary screen, cell-based, fluorescence, HTS (AID 431); type: functional; settings: Homo sapiens;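 further: cell line used: HPDE-C7K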
[4] = molecular target: G-protein coupled receptor 55 (Homo sapiens, UniProt Q9Y2T6); test: GPR55 agonists via beta-arrestin recruitment, primary screen, imaging, U2OS cells, beta-arrestin-GFP redistribution (AID 1961); type: functional
Cytochrome P450 2D6 = Cytochrome P450 2D6 (Homo sapiens, UniProt P10635);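 further: CYP2D6 member of a cytochrome P450 panel assay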
[5] = growth suppression of beta-catenin-knockout colon cells, dose response, cell-based, HCT116, human colon tumor (AID 1045); type: functional;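 further: HCT116 colon tumor cells with beta catenin knocked out; cells exposed to compound for 60 hours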
[6] = microbe, parasite or virus in culture; type: functional; settings: Mycobacterium tuberculosis
[7] = cytotoxicity in HPDE-C7 cells, cell-based, fluorescence, HTS (AID 430); type: functional; settings: Homo sapiens
[8] = HepG2 cell cytotoxicity, dose response, cytotoxicity control for Shn3 inhibitor project, CellTiter-Glo, cherry-picked (AID 624134); type: functional, cell-based
[9] = HepG2 cell cytotoxicity, dose response, cytotoxicity control for non-replicating M. tuberculosis project (AID 489018); type: functional; settings: Mycobacterium tuberculosis
[10] = LGR2 antagonists, dose response, cell-based, HEK293, CRE-luciferase reporter, cherry pick, set 2 (AID 743343); type: functional;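 further: transfected cells were stimulated with diluted bursicon conditioned medium after compound addition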
[11] = Shn3 3'UTR reporter inhibitors, dose response, cell-based, Clone20 osteoblasts, firefly luciferase, cherry-picked (AID 624132); type: functional;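 further: firefly luciferase luminescence from reporter carrying the Shn3 3'UTR in osteoblasts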
[12] = molecular target: T2, Rac GTPase-activating protein 1 (Homo sapiens, UniProt Q9H0H5); test: MgcRacGAP GTPase-activating activity inhibitors, confirmation, biochemical, ADP Hunter fluorescence, primary and confirmatory (AID 624330); type: functional
T2 sequence (Q9H0H5 whole entry): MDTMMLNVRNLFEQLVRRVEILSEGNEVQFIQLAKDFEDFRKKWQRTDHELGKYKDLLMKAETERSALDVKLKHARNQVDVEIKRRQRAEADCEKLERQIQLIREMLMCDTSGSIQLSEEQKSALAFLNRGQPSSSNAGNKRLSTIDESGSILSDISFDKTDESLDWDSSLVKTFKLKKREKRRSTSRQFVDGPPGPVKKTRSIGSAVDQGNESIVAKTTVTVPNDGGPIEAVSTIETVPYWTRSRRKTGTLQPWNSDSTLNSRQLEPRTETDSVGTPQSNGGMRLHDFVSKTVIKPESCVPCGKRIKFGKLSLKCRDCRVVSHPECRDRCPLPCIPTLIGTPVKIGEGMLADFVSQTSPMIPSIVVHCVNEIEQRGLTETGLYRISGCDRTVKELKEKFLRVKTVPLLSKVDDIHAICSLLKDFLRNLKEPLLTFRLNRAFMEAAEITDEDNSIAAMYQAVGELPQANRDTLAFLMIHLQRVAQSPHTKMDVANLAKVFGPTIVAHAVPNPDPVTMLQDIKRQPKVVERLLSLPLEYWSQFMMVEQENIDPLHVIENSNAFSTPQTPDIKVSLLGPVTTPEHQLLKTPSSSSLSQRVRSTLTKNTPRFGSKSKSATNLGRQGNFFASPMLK

[13] = A549 cell cytotoxicity, dose response, cytotoxicity control, plate reader, cherry-pick, antagonist series (AID 743412); type: functional, cell-based
[14] = MC4R antagonists, dose response, counter-screen for LGR2 antagonist project, cell-based, plate reader, cherry pick (AID 743444); type: functional;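 further: transfected HEK 293 cells stimulated with alpha-MSH peptide; potency of inhibitors of the alpha-MSH evoked signal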
[15] = HeLa cell cytotoxicity, dose response, cytotoxicity control for MgcRacGAP inhibitor project (AID 624300); type: functional
cells = type: functional
[16] = control 3'UTR Renilla luciferase suppression, dose response, counter-screen for Shn3 inhibitor project, cell-based, Clone20-Shn3RL, cherry-picked (AID 624133); type: functional
[17] = THP-1 cell cytotoxicity, dose response, cytotoxicity control for non-replicating M. tuberculosis project (AID 489025); type: functional
[18] = HepG2 cell cytotoxicity, dose response, cytotoxicity control, plate reader, cherry-pick, antagonist series (AID 743416); type: functional, cell-based
[19] = cytotoxicity toward HT-29 cells – cell-based, CellTiter-Glo luminescence, IC50, dose response (AID 1117330); type: functional
Estrogen receptor beta [20] = molecular target: T3, Estrogen receptor beta (Homo sapiens, UniProt Q92731); test: ERβ–SRC-3 coactivator interaction inhibitors, confirmation, orthogonal assay, biochemical, ELISA, streptavidin-HRP readout (AID 1060)
Large T antigen = Large T antigen (Simian virus 40, UniProt P03070); test: A confirmatory biochemical assay using the ADP-Hunter methodology, purified TAg, and ATP to quantify activity of synthesized compounds that inhibit the ATPase activity of Tag (3). [Related pubchem assays (depositor defined):AID1903, AID1909, AID2102, AID2501, AID2615, AID2775, AID435001, AID449729]; parameters: species or system Betapolyomavirus macacae
Aminopeptidase N = molecular target: T4, Aminopeptidase N (Plasmodium falciparum FcB1/Columbia, UniProt O96935); test: P. falciparum M1AAP inhibitors, biochemical, fluorogenic H-Leu-NHMec substrate, 1536-well (AID 1445); parameters: species or system Plasmodium falciparum 3D7, 3D7
T4 sequence (O96935 whole entry): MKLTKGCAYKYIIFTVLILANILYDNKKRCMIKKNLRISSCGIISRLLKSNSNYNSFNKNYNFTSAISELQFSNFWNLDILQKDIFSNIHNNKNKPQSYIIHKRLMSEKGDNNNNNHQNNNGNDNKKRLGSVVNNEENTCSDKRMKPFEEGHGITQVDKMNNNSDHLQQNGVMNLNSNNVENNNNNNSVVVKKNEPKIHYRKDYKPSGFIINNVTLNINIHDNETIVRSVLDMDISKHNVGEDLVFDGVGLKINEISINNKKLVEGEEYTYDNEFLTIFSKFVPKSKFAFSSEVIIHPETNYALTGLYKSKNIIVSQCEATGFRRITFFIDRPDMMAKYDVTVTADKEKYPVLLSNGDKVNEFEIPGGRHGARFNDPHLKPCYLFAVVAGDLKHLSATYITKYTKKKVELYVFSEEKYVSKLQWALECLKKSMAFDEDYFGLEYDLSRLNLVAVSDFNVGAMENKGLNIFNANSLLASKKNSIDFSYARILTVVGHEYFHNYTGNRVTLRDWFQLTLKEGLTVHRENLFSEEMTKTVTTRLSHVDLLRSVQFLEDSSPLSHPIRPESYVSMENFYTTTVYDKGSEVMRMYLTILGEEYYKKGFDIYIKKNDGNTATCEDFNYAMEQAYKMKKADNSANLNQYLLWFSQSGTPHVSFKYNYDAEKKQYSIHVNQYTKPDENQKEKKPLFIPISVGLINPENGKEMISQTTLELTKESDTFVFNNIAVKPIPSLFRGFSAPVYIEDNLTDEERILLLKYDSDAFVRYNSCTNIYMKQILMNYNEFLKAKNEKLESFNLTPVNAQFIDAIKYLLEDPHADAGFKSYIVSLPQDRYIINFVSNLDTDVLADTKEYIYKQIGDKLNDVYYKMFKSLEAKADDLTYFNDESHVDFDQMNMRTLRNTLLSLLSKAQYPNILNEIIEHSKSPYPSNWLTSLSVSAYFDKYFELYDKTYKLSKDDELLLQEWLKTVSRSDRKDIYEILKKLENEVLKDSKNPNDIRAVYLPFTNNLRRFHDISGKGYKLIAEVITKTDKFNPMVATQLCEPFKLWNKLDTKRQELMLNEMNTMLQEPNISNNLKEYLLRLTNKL

[21] = SNU-C1 cell viability reduction, dose response, CellTiter-Glo luminescence (AID 1117323); type: functional, cell-based
[22] = HeLa 2N DNA content increase, dose response, cell-based, IC50 (AID 1117349); type: functional
[23] = cytotoxicity toward Colo320 cells – cell-based, CellTiter-Glo luminescence, IC50, dose response (AID 1117334); type: functional; settings: COLO 320
[24] = HCT116 cell viability decrease, GSK3B pretreatment – CellTiter-Glo, IC50, dose response (AID 1117339); type: functional; settings: HCT-116
[25] = Glucagon-like peptide 1 release potency, NCI-H716 cell line, dose-response, half-maximal inhibitory concentration (AID 1117344); type: functional, cell-based
[26] = CellTiter-Glo luminescent dose response of DLD-1 viability loss (AID 1117352); type: functional
[27] = HeLa 4N DNA content increase, dose response, cell-based, IC50 (AID 1117351); type: functional
[28] = Concentration-dependent survival of SW480 colon cancer line, luminescence detection with CellTiter-Glo, half-maximal inhibitory concentration (AID 1117338); type: functional
[29] = molecular target: T5, Calpain-2 catalytic subunit (Sus scrofa, UniProt P43367); test: pig calpain II inhibitor potency, dose response, biochemical, fluorogenic peptide substrate (AID 1420); type: functional
T5 sequence (P43367 whole entry): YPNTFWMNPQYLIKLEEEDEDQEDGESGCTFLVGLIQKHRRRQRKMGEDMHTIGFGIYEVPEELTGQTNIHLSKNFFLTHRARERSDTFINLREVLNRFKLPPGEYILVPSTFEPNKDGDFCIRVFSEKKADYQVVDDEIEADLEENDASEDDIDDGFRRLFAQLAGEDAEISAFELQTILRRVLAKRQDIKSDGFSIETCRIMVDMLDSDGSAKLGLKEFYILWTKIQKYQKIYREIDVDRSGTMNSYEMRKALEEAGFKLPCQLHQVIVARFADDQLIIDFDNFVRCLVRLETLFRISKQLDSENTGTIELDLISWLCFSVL

[30] = half-maximal inhibitory concentration for glucagon-like peptide-1 release, STC-1 cell line, dose-response (AID 1117345); type: functional, cell-based
[31] = cytotoxicity toward HCT116 cells – cell-based, CellTiter-Glo luminescence, IC50, dose response (AID 1117332); type: functional; settings: HCT-116
[32] = molecular target: Induced myeloid leukemia cell differentiation protein Mcl-1 (Homo sapiens, UniProt Q07820); type: functional
[33] = molecular target: Envelope glycoprotein gp160 (Human immunodeficiency virus 1, UniProt Q6QLK5); test: inhibitors of HIV fusion peptide binding, primary screen, biochemical, uHTS, fluorescence dequenching (AID 1986)
[34] = RKO cell viability reduction, dose response, CellTiter-Glo luminescence (AID 1117322); type: functional
Estrogen receptor beta [35] = molecular target: T3, Estrogen receptor beta
[36] = molecular target: DNA dC->dU-editing enzyme APOBEC-3A (Homo sapiens, UniProt P31941); test: APOBEC3A DNA deaminase inhibitors, dose response, biochemical (AID 504722); type: functional
[37] = molecular target: DNA dC->dU-editing enzyme APOBEC-3G (Homo sapiens, UniProt Q9HC16); test: Dose Response confirmation of small molecule APOBEC3G DNA Deaminase Inhibitors via a fluorescence-based single-stranded DNA deaminase assay. [Related pubchem assays (depositor defined):AID493012, AID493028]; type: functional
[38] = molecular target: Voltage-dependent T-type calcium channel subunit alpha-1H (Homo sapiens, UniProt O95180); test: Cav3.2 T-type channel inhibitors, cell-based, synthetic library set 1, calcium flux (AID 493022); type: functional
Chain of Voltage-dependent T-type calcium channel subunit alpha-1H (O95180 whole entry): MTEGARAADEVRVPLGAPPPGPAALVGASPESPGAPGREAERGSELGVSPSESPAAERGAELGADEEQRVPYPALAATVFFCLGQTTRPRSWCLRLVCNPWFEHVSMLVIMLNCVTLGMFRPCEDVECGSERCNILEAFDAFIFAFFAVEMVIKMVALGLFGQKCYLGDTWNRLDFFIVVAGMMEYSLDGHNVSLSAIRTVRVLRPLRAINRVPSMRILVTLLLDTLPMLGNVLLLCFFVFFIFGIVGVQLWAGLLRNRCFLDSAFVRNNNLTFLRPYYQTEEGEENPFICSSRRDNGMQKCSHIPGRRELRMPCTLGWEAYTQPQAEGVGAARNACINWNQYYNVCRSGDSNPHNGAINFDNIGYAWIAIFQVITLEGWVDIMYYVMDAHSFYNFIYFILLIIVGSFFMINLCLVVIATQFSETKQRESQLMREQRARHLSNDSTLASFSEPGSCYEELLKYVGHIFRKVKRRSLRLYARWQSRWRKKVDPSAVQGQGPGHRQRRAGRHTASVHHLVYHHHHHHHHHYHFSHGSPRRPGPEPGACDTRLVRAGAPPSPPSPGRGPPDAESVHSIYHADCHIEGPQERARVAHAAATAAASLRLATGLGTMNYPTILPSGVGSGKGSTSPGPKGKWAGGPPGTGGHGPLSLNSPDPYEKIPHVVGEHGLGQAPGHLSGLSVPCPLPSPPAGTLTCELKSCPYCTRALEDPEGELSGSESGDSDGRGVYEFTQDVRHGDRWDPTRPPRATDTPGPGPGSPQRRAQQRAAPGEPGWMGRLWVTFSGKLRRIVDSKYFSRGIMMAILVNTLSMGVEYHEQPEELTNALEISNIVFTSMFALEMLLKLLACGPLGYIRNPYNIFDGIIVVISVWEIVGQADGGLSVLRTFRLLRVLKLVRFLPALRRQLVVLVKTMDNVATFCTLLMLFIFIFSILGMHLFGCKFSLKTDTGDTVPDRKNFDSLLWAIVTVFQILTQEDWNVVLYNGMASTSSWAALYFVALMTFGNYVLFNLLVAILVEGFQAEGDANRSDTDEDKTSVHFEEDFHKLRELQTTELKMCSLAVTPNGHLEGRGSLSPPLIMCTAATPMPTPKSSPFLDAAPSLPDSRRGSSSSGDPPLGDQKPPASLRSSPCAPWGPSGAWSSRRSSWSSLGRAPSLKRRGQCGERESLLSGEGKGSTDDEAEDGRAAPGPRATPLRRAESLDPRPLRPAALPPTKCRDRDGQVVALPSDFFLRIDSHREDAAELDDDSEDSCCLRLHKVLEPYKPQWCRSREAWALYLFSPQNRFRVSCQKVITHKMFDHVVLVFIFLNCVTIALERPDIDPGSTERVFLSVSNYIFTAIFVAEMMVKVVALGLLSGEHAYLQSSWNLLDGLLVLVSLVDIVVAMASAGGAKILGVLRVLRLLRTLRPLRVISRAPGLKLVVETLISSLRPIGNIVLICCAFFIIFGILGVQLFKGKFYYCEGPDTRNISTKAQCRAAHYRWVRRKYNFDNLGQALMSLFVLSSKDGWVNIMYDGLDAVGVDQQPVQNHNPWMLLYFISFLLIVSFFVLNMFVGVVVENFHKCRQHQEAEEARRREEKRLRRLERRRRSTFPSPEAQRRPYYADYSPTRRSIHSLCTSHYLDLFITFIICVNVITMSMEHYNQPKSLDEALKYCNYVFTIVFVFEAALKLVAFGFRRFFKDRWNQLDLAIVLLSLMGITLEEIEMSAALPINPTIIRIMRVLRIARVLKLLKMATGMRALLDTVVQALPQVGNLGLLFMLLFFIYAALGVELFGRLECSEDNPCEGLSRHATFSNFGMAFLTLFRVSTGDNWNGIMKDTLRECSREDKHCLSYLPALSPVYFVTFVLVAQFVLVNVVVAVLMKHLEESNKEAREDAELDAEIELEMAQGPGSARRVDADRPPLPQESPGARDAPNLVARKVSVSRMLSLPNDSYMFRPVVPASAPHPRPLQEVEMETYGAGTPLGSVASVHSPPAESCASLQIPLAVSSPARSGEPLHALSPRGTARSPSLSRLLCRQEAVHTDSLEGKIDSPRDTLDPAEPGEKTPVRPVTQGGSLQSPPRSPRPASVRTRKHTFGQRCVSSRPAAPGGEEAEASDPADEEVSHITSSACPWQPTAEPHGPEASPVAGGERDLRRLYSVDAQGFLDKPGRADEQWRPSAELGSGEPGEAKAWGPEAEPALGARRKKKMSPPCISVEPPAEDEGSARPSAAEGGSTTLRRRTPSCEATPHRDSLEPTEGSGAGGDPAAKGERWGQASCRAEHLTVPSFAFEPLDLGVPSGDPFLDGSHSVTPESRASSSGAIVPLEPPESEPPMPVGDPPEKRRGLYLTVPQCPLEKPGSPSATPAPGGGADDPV

T3 sequence (Q92731 whole entry): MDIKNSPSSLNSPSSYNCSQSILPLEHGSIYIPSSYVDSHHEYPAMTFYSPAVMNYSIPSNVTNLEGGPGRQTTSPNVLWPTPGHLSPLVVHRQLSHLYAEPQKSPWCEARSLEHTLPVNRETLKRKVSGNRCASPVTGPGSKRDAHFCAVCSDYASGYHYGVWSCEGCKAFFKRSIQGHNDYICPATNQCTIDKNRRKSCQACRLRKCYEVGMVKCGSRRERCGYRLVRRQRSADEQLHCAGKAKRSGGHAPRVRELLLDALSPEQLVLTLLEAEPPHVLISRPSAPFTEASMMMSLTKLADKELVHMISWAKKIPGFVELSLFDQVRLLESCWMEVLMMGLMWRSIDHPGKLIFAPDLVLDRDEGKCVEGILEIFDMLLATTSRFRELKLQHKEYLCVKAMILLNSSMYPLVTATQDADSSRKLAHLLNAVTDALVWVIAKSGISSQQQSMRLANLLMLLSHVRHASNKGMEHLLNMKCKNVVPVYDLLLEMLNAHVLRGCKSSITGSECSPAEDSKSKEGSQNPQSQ
Chain of DNA dC->dU-editing enzyme APOBEC-3G (Q9HC16 whole entry): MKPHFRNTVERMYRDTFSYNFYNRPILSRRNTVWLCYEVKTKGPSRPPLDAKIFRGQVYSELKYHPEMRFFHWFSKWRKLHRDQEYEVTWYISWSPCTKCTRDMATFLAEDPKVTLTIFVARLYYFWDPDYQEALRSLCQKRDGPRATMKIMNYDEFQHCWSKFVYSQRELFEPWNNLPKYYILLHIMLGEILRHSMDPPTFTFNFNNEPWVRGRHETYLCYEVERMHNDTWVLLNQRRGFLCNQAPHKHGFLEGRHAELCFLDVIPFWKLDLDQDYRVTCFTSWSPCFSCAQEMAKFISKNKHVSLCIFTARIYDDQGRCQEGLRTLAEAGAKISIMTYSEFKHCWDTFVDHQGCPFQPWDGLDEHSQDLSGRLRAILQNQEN
Chain of Cytochrome P450 2D6 (P10635 whole entry): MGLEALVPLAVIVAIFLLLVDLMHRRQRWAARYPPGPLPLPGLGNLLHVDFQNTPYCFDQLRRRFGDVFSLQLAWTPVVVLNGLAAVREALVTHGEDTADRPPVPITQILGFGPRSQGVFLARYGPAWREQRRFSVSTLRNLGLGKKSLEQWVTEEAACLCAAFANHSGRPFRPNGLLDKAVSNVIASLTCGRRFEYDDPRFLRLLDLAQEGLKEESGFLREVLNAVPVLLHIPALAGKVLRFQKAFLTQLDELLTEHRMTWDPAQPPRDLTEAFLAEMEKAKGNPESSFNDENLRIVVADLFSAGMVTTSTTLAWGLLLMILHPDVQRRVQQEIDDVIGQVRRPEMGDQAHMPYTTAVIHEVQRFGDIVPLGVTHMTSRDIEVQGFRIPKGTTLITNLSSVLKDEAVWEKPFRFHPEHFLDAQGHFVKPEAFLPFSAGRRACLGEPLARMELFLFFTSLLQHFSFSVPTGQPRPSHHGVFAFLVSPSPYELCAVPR
Chain of G-protein coupled receptor 55 (Q9Y2T6 whole entry): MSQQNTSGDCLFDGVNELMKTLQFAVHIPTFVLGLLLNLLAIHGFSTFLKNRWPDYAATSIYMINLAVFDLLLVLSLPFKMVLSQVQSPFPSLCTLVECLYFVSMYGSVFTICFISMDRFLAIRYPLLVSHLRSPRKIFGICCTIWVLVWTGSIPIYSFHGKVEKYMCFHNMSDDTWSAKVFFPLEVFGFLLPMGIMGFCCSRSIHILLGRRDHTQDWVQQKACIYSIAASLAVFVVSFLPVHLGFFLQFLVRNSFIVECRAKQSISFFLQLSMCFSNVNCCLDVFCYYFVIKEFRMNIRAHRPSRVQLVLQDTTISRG
Chain of Large T antigen (P03070 whole entry): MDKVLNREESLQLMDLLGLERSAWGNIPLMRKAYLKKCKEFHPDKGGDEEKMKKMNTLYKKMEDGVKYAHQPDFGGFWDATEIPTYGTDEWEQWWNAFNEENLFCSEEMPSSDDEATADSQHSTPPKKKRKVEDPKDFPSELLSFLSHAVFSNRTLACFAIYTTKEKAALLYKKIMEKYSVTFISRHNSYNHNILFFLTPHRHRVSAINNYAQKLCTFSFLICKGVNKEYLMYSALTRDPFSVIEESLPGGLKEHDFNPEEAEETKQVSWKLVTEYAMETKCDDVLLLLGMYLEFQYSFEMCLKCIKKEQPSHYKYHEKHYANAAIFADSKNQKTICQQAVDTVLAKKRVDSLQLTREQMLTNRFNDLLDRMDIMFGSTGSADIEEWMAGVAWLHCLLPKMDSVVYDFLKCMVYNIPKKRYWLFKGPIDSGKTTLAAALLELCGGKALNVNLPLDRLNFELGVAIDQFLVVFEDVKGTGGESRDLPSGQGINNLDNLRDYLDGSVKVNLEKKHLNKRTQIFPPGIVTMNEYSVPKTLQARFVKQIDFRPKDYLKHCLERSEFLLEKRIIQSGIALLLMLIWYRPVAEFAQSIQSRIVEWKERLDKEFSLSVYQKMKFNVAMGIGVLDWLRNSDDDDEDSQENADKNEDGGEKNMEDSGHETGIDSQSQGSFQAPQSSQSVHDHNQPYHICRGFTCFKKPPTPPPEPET
Chain of DNA dC->dU-editing enzyme APOBEC-3A (P31941 whole entry): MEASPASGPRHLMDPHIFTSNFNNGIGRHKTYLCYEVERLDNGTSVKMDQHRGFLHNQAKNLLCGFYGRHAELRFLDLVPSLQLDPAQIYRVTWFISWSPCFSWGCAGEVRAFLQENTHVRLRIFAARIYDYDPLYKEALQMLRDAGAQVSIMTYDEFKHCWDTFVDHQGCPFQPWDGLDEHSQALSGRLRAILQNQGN

FC(F)(F)c1ccc(N2CCOCC2)c(Nc2nc3ccccc3n3cnnc23)c1
> 50 µM (not active): EC50 [1]
inconclusive: AC50 (Cytochrome P450 2D6) 28.2 µM
active: EC50 [2] 13.5 µM | EC50 [3] 5.98 µM | EC50 [4] 4.18 µM | EC50 [5] 16.5 µM | CC50 [6] 27.4 µM | EC50 [7] 5.89 µM

CCn1c2ccccc2c2cc(CNCc3ccc(OC)cc3OC)ccc21
active: AC50 [8] 16.9 µM | CC50 [9] 15.6 µM | AC50 [10] 18.6 µM | AC50 [11] 14.7 µM | IC50 [12] 99.7 µM | AC50 [13] 13.6 µM | AC50 [14] 32.9 µM | CC50 [15] 37 µM | IC50 (cells) 12.8 µM | AC50 [16] 14.8 µM | CC50 [6] 19.3 µM | CC50 [17] 16.7 µM | AC50 [18] 13.8 µM

Oc1c(Cl)cc(Cl)cc1Sc1cc(Cl)cc(Cl)c1O [BITHIONOL]
active: IC50 [19] 0.996 µM | IC50 (Large T antigen) 35.7 µM | IC50 (Aminopeptidase N) 42.9 µM | IC50 [21] 0.00867 µM | IC50 [23] 0.015 µM | IC50 [24] 0.001 µM | EC50 [3] 1.34 µM | IC50 [26] 0.001 µM | IC50 [28] 0.001 µM | IC50 [31] 0.001 µM | IC50 [32] 1.9 µM | IC50 [33] 6.16 µM | EC50 [7] 1.21 µM | IC50 [34] 0.001 µM | IC50 (Estrogen receptor beta [35]) 8.15 µM
4.75 µM (not active): IC50 [29]
inactive: IC50 [22] > 10 µM | IC50 [25] 19.4 µM | IC50 [27] > 10 µM | IC50 [30] > 20 µM
> 109 µM (not active): IC50 (Estrogen receptor beta [20])

Cc1ccc(-c2nnc(S)n2/N=C\c2ccco2)cc1
active: IC50 [37] 2.86 µM
inactive: IC50 [36] > 100 µM

O=C(COc1ccc(F)cc1)Nc1nnc(-c2ccc3ccccc3c2)o1
active: EC50 [38] 3.5 µM

Source: ChEMBL document CHEMBL1201862, “PubChem BioAssay data set” (2004)
